pIC50: −log10 of the molar value.
What was measured:
[1] = target: human SOS1 (nucleotide exchange of K-Ras^G12C) (Homo sapiens, UniProt Q07889); experiment: Biochemical assay 2: K-Ras^G12C activation assay by hSOS1 at high GTP concentration (HTRF); details: high GTP; read-out: Assay 2 (KRAS-Activation by SOS high GTP) activity expressed as IC50
[2] = target: Epidermal Growth Factor Receptor (EGFR) (Homo sapiens (Human), UniProt P00533); experiment: EGFR kinase assay (TR-FRET); assay type: biochemical; details: values given in μM; read-out: EGFR kinase inhibition IC50
Summary of the method: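 Read-out is the 665/620 nm HTRF ratio, from a Tb-cryptate anti-phosphotyrosine antibody and streptavidin-XL665 bound to phosphorylated biotin-peptide substrate. The enzyme, A431-derived EGFR (~3 U/ml), was given 15 min compound pre-binding at 22° C in Hepes pH 7.0 with Mg2+/Mn2+ before reaction.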

Chain of Epidermal Growth Factor Receptor (EGFR) (P00533 25-1210): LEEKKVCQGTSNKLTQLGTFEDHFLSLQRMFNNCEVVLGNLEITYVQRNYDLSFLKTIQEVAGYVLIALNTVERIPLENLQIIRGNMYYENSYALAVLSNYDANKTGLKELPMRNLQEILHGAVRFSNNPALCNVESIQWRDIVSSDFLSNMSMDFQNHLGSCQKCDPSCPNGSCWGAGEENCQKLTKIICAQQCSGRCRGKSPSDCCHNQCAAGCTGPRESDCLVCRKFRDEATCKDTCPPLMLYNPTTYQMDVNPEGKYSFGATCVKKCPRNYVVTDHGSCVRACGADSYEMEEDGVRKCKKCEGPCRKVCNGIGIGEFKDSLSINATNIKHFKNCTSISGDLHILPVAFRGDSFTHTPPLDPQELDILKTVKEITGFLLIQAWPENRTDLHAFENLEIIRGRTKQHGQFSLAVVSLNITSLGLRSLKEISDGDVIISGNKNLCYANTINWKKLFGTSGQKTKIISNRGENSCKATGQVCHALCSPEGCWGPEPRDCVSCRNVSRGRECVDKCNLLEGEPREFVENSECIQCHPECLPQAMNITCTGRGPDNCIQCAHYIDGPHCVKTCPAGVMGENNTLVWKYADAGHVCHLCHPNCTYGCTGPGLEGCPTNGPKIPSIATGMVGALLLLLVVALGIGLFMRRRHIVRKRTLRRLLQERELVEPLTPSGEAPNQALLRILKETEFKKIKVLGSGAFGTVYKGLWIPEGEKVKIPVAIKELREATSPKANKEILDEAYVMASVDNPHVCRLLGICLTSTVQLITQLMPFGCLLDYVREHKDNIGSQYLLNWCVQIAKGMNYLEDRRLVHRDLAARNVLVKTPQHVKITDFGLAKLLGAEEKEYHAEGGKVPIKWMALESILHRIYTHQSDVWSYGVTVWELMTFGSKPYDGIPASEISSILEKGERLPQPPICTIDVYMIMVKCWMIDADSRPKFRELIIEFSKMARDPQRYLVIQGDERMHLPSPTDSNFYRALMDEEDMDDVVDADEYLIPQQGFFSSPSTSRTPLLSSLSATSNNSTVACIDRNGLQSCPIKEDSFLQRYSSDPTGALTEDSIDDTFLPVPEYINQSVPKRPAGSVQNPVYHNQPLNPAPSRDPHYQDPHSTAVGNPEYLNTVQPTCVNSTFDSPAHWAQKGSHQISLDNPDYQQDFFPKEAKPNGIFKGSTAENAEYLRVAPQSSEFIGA

COc1cc2nc(C)nc(NC(C)c3ccc(-c4ccccc4[C@H](C)N)s3)c2cc1OC (stereo in doubt) [Example 360, N-[1-(5-{2-[1-aminoethyl]phenyl}thiophen-2-yl)ethyl]-6,7-dimethoxy-2-methylquinazolin-4-amine]
pIC50 [1]: 6.85
IC50 [2]: > 20 µM

COc1cc2nc(C)nc(NC(C)c3ccc4c(c3)CCCC4)c2cc1OC (stereo not drawn) [Example 25, 6,7-dimethoxy-2-methyl-N-[1-(5,6,7,8-tetrahydronaphthalen-2-yl)ethyl]quinazolin-4-amine]
pIC50 [1]: 6.07
IC50 [2]: > 20 µM

COc1cc2nc(C)nc(NC(C)c3cccc4c3CCO4)c2cc1OC (stereo not drawn) [Example 22, N-[1-(2,3-dihydro-1-benzofuran-4-yl)ethyl]-6,7-dimethoxy-2-methylquinazolin-4-amine]
pIC50 [1]: 6.66
IC50 [2]: > 20 µM

Source: US20240083857A1, “2-Methyl-Quinazolines” (Bayer Pharma Aktiengesellschaft, priority 2017, published 2024)
